The results in this text go back to patent US9145403B2, “Heterocyclic alkanol derivatives” (Bayer Intellectual Property GmbH, priority 2010, dated 2015).

What is called chromatographic logP is a lipophilicity value derived from retention on a column. Read a low chromatographic logP as a more hydrophilic compound.

For one data set, the system named is Leptosphaeria nodorum. Nature of the data set: Leptosphaeria nodorum test (wheat)/protective. The format is in vivo. The settings on record: young wheat plants sprayed at 500 ppm, inoculated 1 day after treatment, evaluation 7-9 days after inoculation; 0% = control, 100% = no infection. The protocol:
Leptosphaeria nodorum Test (Wheat)/Protective Solvent: 49 parts by weight of N,N-dimethyformamide Emulsifler: 1 part by weight of alkylaryl polyglycol ether To produce an appropriate active ingredient formulation, 1 part by weight of active ingredient is mixed with the specified amounts of solvent and emulsifler, and the concentrate is diluted with water to the desired concentration. To test for protective activity, young plants are sprayed with the formulation of active ingredient at the stated application rate. One day after the treatment, the plants are inoculated with an aqueous spore suspension of Leptosphaeria nodorum and then remain at 100% relative air humidity and 22° C. for 48 h. The plants are then placed in a greenhouse at 90% relative air humidity and a temperature of 22° C. Evaluation follows 7-9 days after the inoculation. 0% means an efficacy which corresponds to that of the control, whereas an efficacy of 100% means that no infection is observed. In this test, the following inventive compounds, at an active ingredient concentration of 500 ppm, show an efficacy of 70% or more.

The test system of another data set is Alternaria solani. In words: Alternaria test (tomato)/protective. The settings on record: young tomato plants sprayed at 500 ppm, inoculated 1 day after treatment, evaluation 7 days after inoculation; 0% = control, 100% = no infection. The format is in vivo. The protocol: Alternaria Test (Tomato)/Protective Solvent: 49 parts by weight of N,N-dimethyformamide Emulsifier: 1 part by weight of alkylaryl polyglycol ether To produce an appropriate active ingredient formulation, 1 part by weight of active ingredient is mixed with the specified amounts of solvent and emulsifier, and the concentrate is diluted with water to the desired concentration. To test for protective activity, young tomato plants are sprayed with the formulation of active ingredient at the stated application rate. One day after the treatment, the plants are inoculated with a spore suspension of Alternaria solani and are then left at 100% relative humidity and 22° C. for 24 hours. The plants are then left at 96% relative air humidity and a temperature of 20° C. Evaluation follows 7 days after the inoculation. 0% means an efficacy which corresponds to that of the control, whereas an efficacy of 100% means that no infection is observed. In this test, the following inventive compounds, at an active ingredient concentration of 500 ppm, show an efficacy of 70% or more.

The next data set relates to Puccinia recondita. In words: Puccinia test (wheat)/protective. The settings on record: young wheat plants sprayed at 500 ppm, inoculated 1 day after treatment, evaluation 7-9 days after inoculation; 0% = control, 100% = no infection. In kind it is in vivo. As for the experimental part: Puccinia Test (Wheat)/Protective Solvent: 49 parts by weight of N,N-dimethyformamide Emulsifier: 1 part by weight of alkylaryl polyglycol ether To produce an appropriate active ingredient formulation, 1 part by weight of active ingredient is mixed with the specified amounts of solvent and emulsifier, and the concentrate is diluted with water to the desired concentration. To test for protective activity, young plants are sprayed with the formulation of active ingredient at the stated application rate. One day after the treatment, the plants are inoculated with a spore suspension of Puccinia recondita and then left at 100% relative humidity and 22° C. for 48 h. The plants are then left at 80% relative air humidity and a temperature of 20° C. Evaluation follows 7-9 days after the inoculation. 0% means an efficacy which corresponds to that of the control, whereas an efficacy of 100% means that no infection is observed. In this test, the following inventive compounds, at an active ingredient concentration of 500 ppm, show an efficacy of 70% or more.

Another data set concerns Sphaerotheca fuliginea. In words: Sphaerotheca test (cucumber)/protective. In kind it is in vivo. The settings on record: young cucumber plants sprayed at 500 ppm, inoculated 1 day after treatment, evaluation 7 days after inoculation; 0% = control, 100% = no infection. The protocol:
Table D: Sphaerotheca Test (Cucumber)/Protective Solvent: 49 parts by weight of N,N-dimethylformamide Emulsifier: 1 part by weight of alkylaryl polyglycol ether To produce an appropriate active ingredient formulation, 1 part by weight of active ingredient is mixed with the specified amounts of solvent and emulsifier, and the concentrate is diluted with water to the desired concentration. To test for protective activity, young cucumber plants are sprayed with the formulation of active ingredient at the stated application rate. 1 day after the treatment, the plants are inoculated with a spore suspension of Sphaerotheca fuliginea. The plants are then placed in a greenhouse at 70% relative air humidity and a temperature of 23° C. Evaluation follows 7 days after the inoculation. 0% means an efficacy which corresponds to that of the control, whereas an efficacy of 100% means that no infection is observed. In this test, the following inventive compounds, at an active ingredient concentration of 500 ppm, show an efficacy of 70% or more.

Data set [1] is described as follows: log P by HPLC (EEC Directive 79/831 Annex V.A8), reversed-phase C18. The format is physicochemical. The settings on record: reversed-phase C18 HPLC column; method [a]: LC-MS, acidic range, pH 2.7, 0.1% aqueous formic acid/acetonitrile, linear gradient 10% to 95% acetonitrile. As for the experimental part: The log P values were measured in accordance with EEC Directive 79/831 Annex V.A8 by HPLC (High Performance Liquid Chromatography) using reversed-phase columns (C 18) by the following methods: [a] The LC-MS determination in the acidic range is effected at pH 2.7 with 0.1% aqueous formic acid and acetonitrile (contains 0.1% formic acid) as eluents; linear gradient from 10% acetonitrile to 95% acetonitrile.

With `CC(C)(C)c1ncc(OCC(O)(c2cncs2)C(C)(C)C)cn1` (centres unmarked) [Compound 2], the “Efficacy (%)” value in the data set with Leptosphaeria nodorum is on record as 95%.

As to `CC(C)(C)C(O)(COc1ccc(Cl)nc1)c1cncs1` (centres unmarked) [Compound 3], the results for the “Efficacy (%)” value with Alternaria solani, in the data set on Puccinia recondita and with Sphaerotheca fuliginea were 89%, 80% and 80%, respectively.

In data set [1], `CC(C)(C)C(O)(COc1cccnc1)c1cncs1` (centres unmarked) [Compound 4] returned a chromatographic logP of 0.89. In addition, the “Efficacy (%)” value in the data set on Puccinia recondita stood at 80%.

As for `CC(C)(C)C(O)(COc1cncnc1)c1cncs1` (centres unmarked) [Compound 6], the chromatographic logP in data set [1] is 1.4. The “Efficacy (%)” value in the data set with Leptosphaeria nodorum was 70%.
